From patent US10959428B2, “Hematophagous arthropod repellent composition” (WOOJUNG BIO INC., priority 2017, dated 2021)

System: adult Aedes aegypti
Experiment: cage-in-arm test, complete protection time (CPT)
Type: in vivo
Conditions: 4 mg, adult Aedes aegypti
Description: For determining the repellency of prepared samples against adults of Aedes aegypti and Aedes albopicus, a cage-in-arm test was carried out as a method for exposure to skin. Namely, on a back of the hand of a rubber glove, a hole with diameter of 5 cm was created, and, onto an exposed back of the testees, various samples prepared by dissolution in 100 μl of ethanol were applied, and then the skin test was carried out. The testees were healthy males between the ages of 21 and 40. The control group was treated with 100 μl of ethanol only. Female adults (5 to 8 day old) of Aedes aegypti or Aedes albopicus (250 to 300 mosquitoes) were added to a cage for growing adult mosquitoes (25×25×25 cm^3), and adapted to the indoor conditions for 12 to 24 hours before starting the test. When the upper arm of the control group is exposed for 1 minute and at least 6 mosquitoes sit on the upper arm or show a bloodsucking behavior, it was determined as sufficient biting pressure, and then the repellency test was carried out. […] The time period between the time point with initial treatment of a material and the time point at which 2 or more mosquitoes continuously sit on the treatment area or show the bloodsucking behavior was defined as complete protection time (CPT). Furthermore, for obtaining the repellency with regard to concentration, exposure was made for a constant time period regardless of the above and the repellency was calculated by using the following formula. Accordingly, the effect was compared among each test samples. All tests were carried out in triplicate. Repellency %=(Number of insects showing bloodsucking behavior in non-treatment group−Number of insects showing bloodsucking behavior in treatment group)/Number of insects showing bloodsucking behavior in non-treatment group)×100 <Tick Repellency>

Structure (SMILES) | CPT [min]
COc1cc(C=O)ccc1O [Vanillin] | 30
C=CCc1ccc(O)c(OC)c1 [Eugenol, eugenol, reference compound] | 10
COc1cc(C=O)ccc1OC(=O)OC(C)(C)C [tert-butyl 4-formyl-2-methoxyphenyl carbonate] | 10
COc1cc(CN)ccc1O.Cl [4-hydroxy-3-methoxybenzylamine hydrochloride] | 10
COc1cc(CCC(C)=O)ccc1O [Vanillyl acetone, vanillyl acetone] | 10
